Assay results published in publication PMC9770967, “Native holdup (nHU) to measure binding affinities from cell extracts” (Science Advances, 2022).
*1 amine or outer side, *2 acyl side, *3 side chain or, on linkers, in order; H or OH if unused. Where a SMILES comes first, the peptide text is derived from it. The star is where a group is joined. X1 = O=C(CCCC[C@@H]1SC[C@@H]2NC(=O)N[C@@H]21)NCCCOCCOCCOCCCN*; Suc = O=C(CCC(=O)[*:2])[*:1]

What was measured:
SCRIB_PDZ_1 = experiment: nHU-MS, SCRIB_PDZ_1 bait, total Jurkat extracts (Exploris MS); format: binding, human; conditions: for Ratio SCRIB_1/MBP: SCRIB_PDZ_1, total Jurkat extract; for BI: SCRIB_PDZ_1 bait vs MBP; for Difference log2: SCRIB_PDZ_1 vs MBP
From the text: (§1) To further establish the repeatability and robustness of the nHU-MS assay, we repeated the experiments using a different mass spectrometer and six different PDZ domain baits taken from SCRIB (PDZ_1 and PDZ_2), discs large MAGUK scaffold protein 1 (DLG1, PDZ_1, and PDZ_2), Tax1 binding protein 3 (TAX1BP3), and SNX27 (fig. S3B and table S1). […] Of the studied baits, the PDZ domain of SNX27 turned out to be the most promiscuous with 103 statistically significant interaction partners (while 180 SNX27 binding partners were identified in total on the basis of the three independent nHU-MS experiments).
(§2) For saturating streptavidin resin with biotinylated peptides or biotin, 50 μl of streptavidin resin was mixed with biotin or peptide at 40 to 60 μM concentration in 6 to 6.5 resin volume for 60 min. To saturate streptavidin resin with biotinylated proteins, 50 μl of streptavidin resin (Streptavidin Sepharose High Performance, Cytiva) was mixed with biotinylated MBP or MBP-PDZ at 40 to 50 μM concentration in 20× resin volume for 60 min. After saturation, resins were washed a single time [10 resin volume, holdup buffer: 50 mM tris (pH 7.5), 300 mM NaCl, and 1 mM TCEP, 0.22-μm filtered] and were depleted with biotin (10 resin volume, 10 min, holdup buffer supplemented with 100 μM biotin). Last, resins were washed two times (10 resin volume, holdup buffer).
(§3) For single-point nHU experiments carried out at ~10 μM bait concentration, 50 μl of saturated streptavidin resin was mixed with 200 μl of cell lysate (2 mg/ml). Titration experiments were carried out by mixing control and bait-saturated resin and keeping the total resin volume constant; e.g., ~5 μM bait concentration can be achieved by mixing 25 μl of bait-saturated streptavidin resin with 25 μl of control resin and 200 μl of cell lysate (2 mg/ml). Control and bait-saturated resins were prepared in larger amounts, and a serial dilution was prepared with these presaturated resins to achieve different resin ratios.
(§4) Unless specified elswhere, the nHU mixture was incubated at 4°C for 2 hours. After the incubation ended, the resin was separated from the supernatant by a brief centrifugation (15 s, 2000 g). Then, half of the supernatant was removed by pipetting without any delay to avoid any resin contamination; e.g., 100 μl of supernatant is collected if 200 μl of cell lysate was used as analyte. Alternatively, the supernatant can be centrifuged an additional time to clarify it further, removing any possible resin contamination. In principle, the separation of the supernatant should be as fast as possible since any delay can perturb the equilibrium. […] Alternatively, the resin can be separated from the supernatant using filter plates (e.g., various products of Millipore, Burlington, MA) or spin columns (e.g., Pierce spin cups—cellulose acetate filter from Thermo Fisher Scientific, Waltham, MA) to achieve faster separation.
(§5) The nHU samples were precipitated with trichloroacetic acid (TCA) 20% overnight at 4°C and centrifuged at 14,000 rpm for 10 min at 4°C. The protein pellets were washed twice with 1 ml of cold acetone and air-dried. The protein extracts were solubilized in 8 M urea, reduced with 5 mM TCEP for 30 min, and alkylated with 10 mM iodoacetamide for 30 min in the dark. Double digestion was performed at 37°C with 500 ng of endoproteinase Lys-C (Wako, Richmond, USA) for 4 hours, followed by fourfold dilution and an overnight digestion with 500 ng of trypsin (Promega, Charbonnieres les Bains, France). Peptide mixtures were then desalted on a C18 spin-column and dried on a speed vacuum.
(§6) Samples were analyzed using an Ultimate 3000 nano-RSLC coupled in line via a nano-electrospray ionization source, with an LTQ-Orbitrap ELITE mass spectrometer (Thermo Fisher Scientific, San Jose, CA) or with the Orbitrap Exploris 480 mass spectrometer (Thermo Fisher Scientific, Bremen, Germany) equipped with a high field asymmetric ion mobility spectrometry (FAIMS) module. […]

SNX27_PDZ [1] = experiment: nHU-MS, SNX27_PDZ bait, total Jurkat extracts, series 2 (Exploris MS); format: binding, human
From the text: as §1, §2, §3, §4, §5, §6

DLG1_PDZ_2 = experiment: nHU-MS, DLG1_PDZ_2 bait, total Jurkat extracts (Exploris MS); format: binding, human; conditions: Jurkat extract; for Difference log2 / Ratio DLG1_2/MBP: DLG1_PDZ_2 bait vs MBP; for BI: DLG1_PDZ_2 bait
From the text: as §1, §2, §3, §4, §5, §6

TX1BP3_PDZ = experiment: nHU-MS, TX1BP3_PDZ (TAX1BP3) bait, total Jurkat extracts (Exploris MS); format: binding, human; conditions: for BI / Difference log2 / Ratio TX1BP3/MBP: nHU-MS, total Jurkat extract; for BI: TX1BP3_PDZ bait vs MBP; for Difference log2: TX1BP3_PDZ vs MBP; for Ratio TX1BP3/MBP: TX1BP3_PDZ
From the text: as §1, §2, §3, §4, §5, §6

DLG1_PDZ_1 = experiment: nHU-MS, DLG1_PDZ_1 bait, total Jurkat extracts (Exploris MS); format: binding, human; conditions: for Ratio DLG1_1/MBP: DLG1_PDZ_1, total Jurkat extract; for BI: DLG1_PDZ_1 bait vs MBP; for BI / pKd / Difference log2: total Jurkat extract; for pKd: DLG1_PDZ_1 bait, not filtered for significance (pKdsign N/D); for Difference log2: DLG1_PDZ_1 vs MBP
From the text: as §1, §2, §3, §4, §5, §6

SCRIB_PDZ_2 = experiment: nHU-MS, SCRIB_PDZ_2 bait, total Jurkat extracts (Exploris MS); format: binding, human; conditions: nHU-MS; for Ratio SCRIB_2/MBP: SCRIB_PDZ_2, total Jurkat extract; for BI: SCRIB_PDZ_2 bait vs MBP; for BI / Difference log2: total Jurkat extract; for Difference log2: SCRIB_PDZ_2 vs MBP
From the text: as §1, §2, §3, §4, §5, §6

SCRIB PDZ1 = conditions: fragmentomic, isolated PDZ domain; cited from earlier work
From the text: Supplement sciadv.ade3828_table_s1.zip/sciadv.ade3828_table_s1.xlsx, sheet "nHU-WB_SP" | column: Domain-motif fragmentomic affinities (ProfAff)

[2] = biological target: isolated PDZ domain of SNX27; conditions: 10-mer PBM peptide vs isolated PDZ domain, holdup; cited from earlier work
SCRIB PDZ2 = conditions: fragmentomic, isolated PDZ domain; cited from earlier work
From the text: (§7) Supplement sciadv.ade3828_table_s1.zip/sciadv.ade3828_table_s1.xlsx, sheet "nHU-WB_SP"

SCRIB PDZ3 = conditions: fragmentomic, isolated PDZ domain; cited from earlier work
From the text: as §7

SNX27_PDZ [3] = experiment: nHU-MS, SNX27_PDZ bait, total SH-SY5Y extracts; format: binding, human
Description: The empty His6-AviTag-MBP-TEV vector was used to produce biotinylated MBP for control experiments. Proteins were coexpressed with BirA biotin ligase (PET21a-BirA, Addgene, no. 20857) in Escherichia coli BL21(DE3) cells. At isopropyl-β-D-thiogalactopyranoside (IPTG) induction (1 mM IPTG at 18°C overnight), 50 μM biotin was added to the media. Harvested cells were lysed in a buffer containing 50 mM tris (pH 7.5), 150 to 300 mM NaCl, 50 μM biotin, 2 mM β-mercaptoethanol, cOmplete EDTA-free protease inhibitor cocktail (Roche, Basel, Switzerland), 1% Triton X-100, and trace amount of deoxyribonuclease, ribonuclease, and lysozyme. Lysates were frozen at −20°C before further purification steps. Lysates were sonicated and centrifuged for clarification. Expressed proteins were captured on in-house prepacked Ni-IDA (Protino Ni-IDA Resin, Macherey-Nagel, Duren, Germany) columns and were washed with at least 10 column volumes of cold wash buffer [50 mM tris (pH 7.5), 150 mM NaCl, and 2 mM β-mercaptoethanol] before elution with 250 mM imidazole. The Ni elution was collected directly on a preequilibrated amylose column (amylose high flow resin, New England Biolabs, Ipswich, MA). Amylose column was washed with 5 column volumes of cold wash buffer before fractionated elution in a buffer containing 25 mM Hepes (pH 7.5), 150 mM NaCl, 1 mM TCEP, 10% glycerol, 5 mM maltose, and cOmplete EDTA-free protease inhibitor cocktail. The concentration of proteins was determined by their ultraviolet absorption at 280 nm before aliquots were snap-frozen in liquid nitrogen and stored at −80°C.
as §2, §3
as §4, with “separation. […]” for “separation.”

Compound | Ratio SCRIB_1/MBP (SCRIB_PDZ_1; nHU-MS) | BI (SCRIB_PDZ_1; nHU-MS, total Jurkat extract) | Difference log2 (SCRIB_PDZ_1; nHU-MS, total Jurkat extract) | BI (SNX27_PDZ [1]; Jurkat, series 2, n = 3) | Difference log2 (SNX27_PDZ [1]; Jurkat, series 2, n = 3) | Ratio SNX27/MBP (SNX27_PDZ [1]; Jurkat, series 2, n = 3) | Difference log2 (DLG1_PDZ_2) | Ratio DLG1_2/MBP (DLG1_PDZ_2) | BI (DLG1_PDZ_2) | BI (TX1BP3_PDZ) | Difference log2 (TX1BP3_PDZ) | Ratio TX1BP3/MBP (TX1BP3_PDZ) | Ratio DLG1_1/MBP (DLG1_PDZ_1) | BI (DLG1_PDZ_1) | pKd (DLG1_PDZ_1) | Difference log2 (DLG1_PDZ_1) | Ratio SCRIB_2/MBP (SCRIB_PDZ_2) | BI (SCRIB_PDZ_2) | Difference log2 (SCRIB_PDZ_2) | other results
PPIAL4C: Peptidyl-prolyl cis-trans isomerase A-like 4C | 0.9925 | 0.007486 | -0.01084 | -0.1115 | 0.1526 | 1.112 | 0.05781 | 1.041 | -0.04089 | -0.05401 | 0.07589 | 1.054 | 0.9698 | 0.03017 | 3.493 | -0.0442 | 1.136 | -0.1361 | 0.1841 | pKd (SCRIB_PDZ_1; nHU-MS, SCRIB_PDZ_1 bait, total Jurkat extract, not filtered for significance (pKdsign N/D)): 2.878
CC(C)C[C@H](NC(=O)[C@H](CO)NC(=O)[C@@H](NC(=O)[C@H](CCC(=O)O)NC(=O)[C@H](CC(C)C)NC(=O)[C@H](CO)NC(=O)[C@H](Cc1c[nH]cn1)NC(=O)[C@H](CC(C)C)NC(=O)[C@@H]1CCCN1C(=O)[C@H](CO)NC(=O)CCC(=O)NCCCOCCOCCOCCCNC(=O)CCCC[C@@H]1SC[C@@H]2NC(=O)N[C@@H]21)[C@@H](C)O)C(=O)O [ATP2B1] ({X1-Suc}-SPLHSLETSL-OH; C-terminus assumed) |  |  |  |  |  |  |  |  |  |  |  |  |  |  |  |  |  |  |  | pKd_PDZ1 (SCRIB PDZ1): 5.36; pKd (fragmentomic affinity) [2]: 5.48; pKd_PDZ2 (SCRIB PDZ2): 4.27; pKd_PDZ3 (SCRIB PDZ3): 5.54
PPIAL4H: Peptidyl-prolyl cis-trans isomerase A-like 4H | 1.007 | -0.006606 | 0.009499 | 0.2686 | -0.4513 | 0.7314 | 0.01399 | 1.01 | -0.009745 | -0.05277 | 0.07419 | 1.053 | 0.8033 | 0.1967 | 4.3897 | -0.3159 | 1.14 | -0.1396 | 0.1885 | pKd (SNX27_PDZ [1]; apparent, Jurkat, series 2, not filtered for significance, n = 3): 4.566
KARS1: Lysine--tRNA ligase |  |  |  |  |  |  |  |  |  |  |  |  |  |  |  |  |  |  |  | pKapp_HU_not_filtered (SNX27_PDZ [3]; apparent, Eq. 2, not filtered for significance): 4.711; pKapp_significant_binders_HU (SNX27_PDZ [3]; apparent, Eq. 2, significant binders (1 σ, P < 0.05)): 4.711; BI_HU (SNX27_PDZ [3]; n = 6): 0.3389
WDR48 |  |  |  |  |  |  |  |  |  |  |  |  |  |  |  |  |  |  |  | pKapp (nHU-MS) (SCRIB_PDZ_1; SCRIB_PDZ_1&Jurkat (Exploris)): 4.749; pKapp (nHU-MS) (SNX27_PDZ [1]; SNX27_PDZ&Jurkat (Exploris)): 4.78; pKapp (nHU-MS) (TX1BP3_PDZ; TX1BP3_PDZ&Jurkat (Exploris)): 4.78
CC[C@H](C)[C@H](NC(=O)[C@H](CCC(N)=O)NC(=O)[C@H](CO)NC(=O)[C@@H](NC(=O)[C@H](CCC(N)=O)NC(=O)[C@@H](NC(=O)[C@H](CC(N)=O)NC(=O)[C@H](CCCNC(=N)N)NC(=O)[C@@H]1CCCN1C(=O)[C@H](CC(=O)O)NC(=O)CCC(=O)NCCCOCCOCCOCCCNC(=O)CCCC[C@@H]1SC[C@@H]2NC(=O)N[C@@H]21)[C@@H](C)O)[C@@H](C)O)C(=O)O [ABRAXAS2] ({X1-Suc}-DPRNTQTSQI-OH; C-terminus assumed) |  |  |  |  |  |  |  |  |  |  |  |  |  |  |  |  |  |  |  | pKd_PDZ1 (SCRIB PDZ1): 4.02; pKd (fragmentomic affinity) [2]: 4.04; pKd_PDZ3 (SCRIB PDZ3): 4.01
PIGBOS1: Protein PIGBOS1 (MFRRLTFAQLLFATVLGIAGGVYIFQPVFEQYAKDQKELKEKMQLVQESEEKKS; UniProt A0A0B4J2F0 1-54, looked up) | 1.118 | -0.1177 | 0.1605 | -0.08774 | 0.1213 | 1.088 | 0.04834 | 1.034 | -0.03407 | -0.09136 | 0.1261 | 1.091 | 0.91 | 0.08999 | 3.996 | -0.136 | 1.081 | -0.08098 | 0.1123 | 
